Source: PubChem BioAssay AID2382 (Broad Institute, 2010)
Inconclusive results are not listed. The source made the active and inactive calls.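 Rule for the calls: active = IC50 at or below a set limit past the top dose tested; inconclusive = flat curve with 30 to 70% signal change, or a failed fit; inactive = IC50 above that set limit.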

tested on: NIH3T3-HGL HSF1-luciferase reporter, MG132-induced, 8 h; assay: decrease of HSF1-responsive luciferase luminescence – cell-based, NIH3T3, dose retest, confirmation (AID 2382)

SMILES | IC50
C#CCOCCOCCOCCNc1nc(N2CCN(C(=O)[C@H](CCC(=O)O)n3cc(C(N)Cc4ccc(O)cc4)nn3)CC2)nc(N2CCN(C(=O)[C@H](Cc3ccc(O)cc3)n3cc(C(N)[C@H](C)CC)nn3)CC2)n1 (stereo partly drawn) | > 19.5 µM (inactive)
Cc1cc(=O)[nH]c(NN=C2CCC(C(C)(C)C)CC2)n1 (stereo not drawn) | > 19.5 µM (inactive)
O=C(NN=C1CCC(c2ccccc2)CC1)c1cc2c(s1)CCCC2 (stereo not drawn) | > 19.5 µM (inactive)
